Measurements taken from patent US10822323B2, “Acid labile surfactants” (Waters Technologies Corporation, priority 2018, dated 2020).
In brackets after ≈: the same amount, converted by molar mass.

Assay: Dissolution study of hydrophobic moieties in acetonitrile / 20 mM ammonium bicarbonate buffer solutions
Assay type: physicochemical
Details: for Observed Solubility: 21° C.; for solubility: 21 °C, aqueous with cosolvent or surfactant or cyclodextrin, thermodynamic from solid
Experimental: A dissolution study was performed on compounds 3 (commercially available—Sigma Aldrich P/N 172839 99%) 6, and 8 (Synthesis described above) at 21° C. in different buffer solutions containing a mixture of standard chromatographic solvents, e.g., acetonitrile and 20 mM aqueous […]. 20 mM aqueous ammonium bicarbonate was made by dissolving 474 mg ammonium bicarbonate in 300 mL MiliQ water.

[1] = 10% acetonitrile buffer solution, stated weight in stated buffer volume (3: 180 mL; 6: 120 mL; 8: 24 mL)
[2] = 10 mL acetonitrile and 90 mL 20 mM ammonium bicarbonate (10% acetonitrile)
[3] = 30 mL acetonitrile and 70 mL 20 mM ammonium bicarbonate (30% acetonitrile)
[4] = 30% acetonitrile buffer solution, stated weight in stated buffer volume (3: 50 mL; 6: 10 mL; 8: 1.4 mL)

Row | Observed Solubility [1] | Observed Solubility (30% acetonitrile buffer solution, stated weight in stated buffer volume (3: 50 mL; 6: 10 mL; 8: 1.4 mL), 70 mg in 10 mL buffer) | Observed Solubility (30% acetonitrile buffer solution, stated weight in stated buffer volume (3: 50 mL; 6: 10 mL; 8: 1.4 mL), 90 mg in 10 mL buffer) | solubility [2] [µg/mL] | solubility [3] [µg/mL] | Observed Solubility [4] | SMILES
1 | At 6 mg: Not dissolved | At 70 mg: Dissolved | At 90 mg: Not dissolved | < 50 | ~8000 (≈ 32.5 mM) | – | CCCCCCCCCCCOCC(O)CO (stereo not drawn) [Compound 6, 3-(undecyloxy)-1,2-propanediol]
2 | At 6 mg: Not dissolved | – | – | < 30 | < 1000 | At 30 mg: Not dissolved | CCCCCCCCCCCC(C)=O [Compound 3, reference compound]
3 | – | – | – | ~500 (≈ 2.29 mM) | ~140000 (≈ 641 mM) | At 200 mg: Dissolved | CCCCCCCCCOCC(O)CO (stereo not drawn) [Compound 8, 3-nonoxypropane-1,2-diol]
